Series [1] relates to HCT116 cell line (colorectal carcinoma). As to the kind of experiment: MTT cytotoxicity assay, HCT116. The format is cell-based, human.
Experimental: (§1) MTT assay was engaged to evaluate the anticancer activity of synthesized compounds P(1–21) against various human cancer cell lines (breast cancer- MCF-7 and colorectal carcinoma- HCT116) [31–34].
(§2) The MTT test was carried out using the 3-(4,5-dimethyl-2-thiazolyl)-2,5-diphenyl-2H-tetrazolium (MTT) colorimetric test [33, 34]. […] The MTT test based on the reduction of MTT (yellow color) depends on cellular metabolic activities due to H-dependent cellular NAD (P) oxidoreductase enzymes [33]. […] The final product of MTT reduction is a purple formazan that can be easily dissolved in DMSO.
(§3) To test the anticancer activities of the synthesized compounds (selected based on docking studies), we evaluated the antiproliferative activity of compounds P (1–21) against HCT116 and MCF-7 cell lines. All the experiments were repeated at least thrice independently, the 50% inhibitory concentration (IC50) of new hybrids was determined (as the anticancer drug concentration causing a 50% reduction in cell viability) and calculated using a trendline equation.
The test system of series [2] is MCF-7 cell line (breast cancer). Nature of the series: MTT cytotoxicity assay, MCF-7. The class given is cell-based, human.
Experimental: as §1, §2, §3
The target in series [3] is recombinant human Aurora-A (Homo sapiens, UniProt O14965). Nature of the series: biochemical. To be noted: NADH consumption at 340 nm, 30 °C; read-out: IC50 ± SD, inhibition of Aurora-A kinase.
Chain of recombinant human Aurora-A (O14965 whole entry): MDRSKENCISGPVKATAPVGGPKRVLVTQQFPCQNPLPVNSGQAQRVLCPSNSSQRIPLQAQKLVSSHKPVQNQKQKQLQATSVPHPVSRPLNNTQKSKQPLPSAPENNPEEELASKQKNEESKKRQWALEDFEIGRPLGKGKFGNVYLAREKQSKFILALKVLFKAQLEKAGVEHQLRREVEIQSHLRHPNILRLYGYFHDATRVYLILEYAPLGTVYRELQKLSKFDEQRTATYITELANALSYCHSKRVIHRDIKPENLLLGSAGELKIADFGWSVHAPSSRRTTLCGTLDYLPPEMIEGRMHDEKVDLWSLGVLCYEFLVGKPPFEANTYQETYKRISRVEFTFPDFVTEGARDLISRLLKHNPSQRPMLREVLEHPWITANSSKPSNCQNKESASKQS
Experimental: At 30 °C, dilute enzyme (aurora A), substrates (NADH, NaCl, MgCl2, PEP, LDH, PK, and histones H3), ATP, and inhibitors (selected compounds as per in silico studies) in kinase buffer (HEPES) and this to 96 well plates and incubate for 60 min. Once the ATP substrate was added, the reaction began. With the reaction, NADH was continuously transformed into NAD^+ The activity of Aurora-A can be assayed by measuring the consumption of nicotinamide adenine dinucleotide plus hydrogen (NADH) at 340 nm. Absorbance at 340 nm was continuously recorded for 10 min. Inhibition of recombinant human Aurora-A by inhibitors was initially screened via an enzyme-coupled continuous spectrophotometric assay (Kishore et al., 2008; Aixia et al., 2011; Fancelli D et al., 2006).
Series [4] concerns HCT 116 and MCF-7 cell lines. As to the kind of experiment: cells. To be noted: Homo sapiens, read-out: IC50, cytotoxicity, range over two cancer cell lines.
Experimental: as §1, §2, §3
Setting [5] is: Homo sapiens, HCT-116, read-out: IC50 ± SD, HCT-116, inhibition of growth of tumor cell lines.
Where [6] appears, read: Homo sapiens, MCF7, read-out: IC50 ± SD, MCF-7, inhibition of growth of tumor cell lines.

Read-outs that look alike come from different tables or passages of the source.

Turning to `O=C1CSC(c2cn(C(=O)c3ccncc3)nc2-c2ccc([N+](=O)[O-])cc2)N1c1ccccc1` (stereo not drawn) [Compound P-1, 2-(1-isonicotinoyl-3-(4-nitrophenyl)-1H-pyrazol-4-yl)-3-phenylthiazolidin-4-one], the half-maximal inhibitory concentration (IC50) in series [1] (setting [5]) came out at 2300 ± 140 nM; in series [2] (setting [6]), 4400 ± 180 nM; in series [3] it was 2340 ± 360 nM.
For `O=C1CSC(c2cn(C(=O)c3ccncc3)nc2-c2ccc([N+](=O)[O-])cc2)N1c1ccc([N+](=O)[O-])cc1` (stereo not drawn) [Compound P-2, 2-(1-isonicotinoyl-3-(4-nitrophenyl)-1H-pyrazol-4-yl)-3-(4-nitrophenyl)thiazolidin-4-one] the same measures were 3520 ± 330 nM, 3260 ± 310 nM and 3570 ± 350 nM.
Regarding `O=C1CSC(c2cn(C(=O)c3ccncc3)nc2-c2ccc([N+](=O)[O-])cc2)N1c1ccccc1[N+](=O)[O-]` (stereo not drawn) [Compound P-3, 2-(1-isonicotinoyl-3-(4-nitrophenyl)-1H-pyrazol-4-yl)-3-(2-nitrophenyl)thiazolidin-4-one], the melting point was 282 to 284 °C. Also, the IC50 in series [1] (setting [5]) was 4470 ± 450 nM. In addition, the half-maximal inhibitory concentration (IC50) in series [2] (setting [6]) came to 4490 ± 420 nM. Also, the IC50 in series [3] turned out to be 7250 ± 800 nM.
Consider `O=C1CSC(c2cn(C(=O)c3ccncc3)nc2-c2ccc([N+](=O)[O-])cc2)N1c1ccc(Cl)cc1` (stereo not drawn) [Compound P-4, 3-(4-chlorophenyl)-2-(1-isonicotinoyl-3-(4-nitrophenyl)-1H-pyrazol-4-yl)thiazolidin-4-one], for which the melting point lay within 286 to 288 °C. Besides, in series [1] (setting [5]), the IC50 was found to be 1350 ± 70 nM. Also, in series [2] (setting [6]), the half-maximal inhibitory concentration (IC50) came out at 2550 ± 70 nM. Moreover, in series [3], the IC50 is 1330 ± 150 nM.
Regarding `O=C1CSC(c2cn(C(=O)c3ccncc3)nc2-c2ccc([N+](=O)[O-])cc2)N1c1cccc(Cl)c1` (stereo not drawn) [Compound P-5, 3-(3-chlorophenyl)-2-(1-isonicotinoyl-3-(4-nitrophenyl)-1H-pyrazol-4-yl)thiazolidin-4-one], the melting point is 274 to 276 °C. The 50% inhibitory concentration (IC50) in series [1] (setting [5]) was found to be 3880 ± 160 nM. Moreover, the IC50 in series [2] (setting [6]) amounted to 4010 ± 100 nM. The half-inhibitory concentration (IC50) in series [3] is 4790 ± 830 nM.
Regarding `COc1ccc(N2C(=O)CSC2c2cn(C(=O)c3ccncc3)nc2-c2ccc([N+](=O)[O-])cc2)cc1` (stereo not drawn) [Compound P-6, 2-(1-isonicotinoyl-3-(4-nitrophenyl)-1H-pyrazol-4-yl)-3-(4-methoxyphenyl)thiazolidin-4-one], the IC50 in series [1] (setting [5]) was 370 ± 150 nM; in series [2] (setting [6]), 440 ± 60 nM; in series [3], 180 ± 50 nM; in series [4] it was 370 to 440 nM.
`COc1ccccc1N1C(=O)CSC1c1cn(C(=O)c2ccncc2)nc1-c1ccc([N+](=O)[O-])cc1` (stereo not drawn) [Compound P-7, 2-(1-isonicotinoyl-3-(4-nitrophenyl)-1H-pyrazol-4-yl)-3-(2-methoxyphenyl)thiazolidin-4-one] showed a melting point of 250 to 252 °C. Besides, in series [1] (setting [5]), the IC50 stood at 620 ± 30 nM. Also, in series [2] (setting [6]), the IC50 worked out at 880 ± 30 nM. For the same compound, in series [3], the IC50 was determined as 420 ± 120 nM.
Compound `COc1ccc(-c2nn(C(=O)c3ccncc3)cc2C2SCC(=O)N2c2ccccc2)cc1` (stereo not drawn) [Compound P-8, 2-(1-isonicotinoyl-3-(4-methoxyphenyl)-1H-pyrazol-4-yl)-3-phenylthiazolidin-4-one] had a melting point of 300 to 302 °C. Also, in series [1] (setting [5]), the half-inhibitory concentration (IC50) came to 5350 ± 270 nM. The IC50 in series [2] (setting [6]) came out at 6080 ± 240 nM. Moreover, in series [3], the IC50 turned out to be 7320 ± 690 nM.
In the case of `COc1ccc(-c2nn(C(=O)c3ccncc3)cc2C2SCC(=O)N2c2ccc([N+](=O)[O-])cc2)cc1` (stereo not drawn) [Compound P-9, 2-(1-isonicotinoyl-3-(4-methoxyphenyl)-1H-pyrazol-4-yl)-3-(4-nitrophenyl)thiazolidin-4-one], the melting point was in the range of 308 to 310 °C. In addition, the IC50 in series [1] (setting [5]) turned out to be 1450 ± 180 nM. Moreover, the IC50 in series [2] (setting [6]) was determined as 1620 ± 50 nM. The IC50 in series [3] came to 1450 ± 50 nM.
In turn, `COc1ccc(-c2nn(C(=O)c3ccncc3)cc2C2SCC(=O)N2c2ccccc2[N+](=O)[O-])cc1` (stereo not drawn) [Compound P-10, 2-(1-isonicotinoyl-3-(4-methoxyphenyl)-1H-pyrazol-4-yl)-3-(2-nitrophenyl)thiazolidin-4-one] displayed a melting point of 322 to 324 °C. Besides, in series [1] (setting [5]), the IC50 was 780 ± 40 nM. Also, in series [2] (setting [6]), the half-maximal inhibitory concentration (IC50) was determined as 1030 ± 110 nM. For the same compound, the half-inhibitory concentration (IC50) in series [3] worked out at 650 ± 90 nM.
As for `COc1ccc(-c2nn(C(=O)c3ccncc3)cc2C2SCC(=O)N2c2ccc(Cl)cc2)cc1` (stereo not drawn) [Compound P-11, 3-(4-chlorophenyl)-2-(1-isonicotinoyl-3-(4-methoxyphenyl)-1H-pyrazol-4-yl)thiazolidin-4-one], the melting point lay within 318 to 320 °C. The IC50 in series [1] (setting [5]) worked out at 2540 ± 200 nM. In addition, the IC50 in series [2] (setting [6]) stood at 2530 ± 190 nM. The IC50 in series [3] came out at 2780 ± 140 nM.
Taken in the same sequence, the figures for `COc1ccc(-c2nn(C(=O)c3ccncc3)cc2C2SCC(=O)N2c2cccc(Cl)c2)cc1` (stereo not drawn) [Compound P-12, 3-(3-chlorophenyl)-2-(1-isonicotinoyl-3-(4-methoxyphenyl)-1H-pyrazol-4-yl)thiazolidin-4-one] were 338 to 340 °C, 4060 ± 380 nM, 4350 ± 470 nM and 5590 ± 370 nM.
As for `COc1ccc(-c2nn(C(=O)c3ccncc3)cc2C2SCC(=O)N2c2ccc(OC)cc2)cc1` (stereo not drawn) [Compound P-13, 2-(1-isonicotinoyl-3-(4-methoxyphenyl)-1H-pyrazol-4-yl)-3-(4-methoxyphenyl) thiazolidin-4-one], the half-maximal inhibitory concentration (IC50) in series [1] (setting [5]) was 5870 ± 420 nM; in series [2] (setting [6]), 8210 ± 350 nM; in series [3] it was 12400 ± 850 nM.
In turn, `COc1ccc(-c2nn(C(=O)c3ccncc3)cc2C2SCC(=O)N2c2ccccc2OC)cc1` (stereo not drawn) [Compound P-14] registered a melting point of 336 to 338 °C.
`O=C1CSC(c2cn(C(=O)c3ccncc3)nc2-c2ccc(Br)cc2)N1c1ccccc1` (stereo not drawn) [Compound P-15, 2-(3-(4-bromophenyl)-1-isonicotinoyl-1H-pyrazol-4-yl)-3-phenylthiazolidin-4-one] came in with a melting point of 256 to 258 °C. In series [1] (setting [5]), the half-inhibitory concentration (IC50) turned out to be 2180 ± 150 nM. For the same compound, the half-inhibitory concentration (IC50) in series [2] (setting [6]) came out at 2340 ± 270 nM. Moreover, the IC50 in series [3] is 2100 ± 130 nM.
`O=C1CSC(c2cn(C(=O)c3ccncc3)nc2-c2ccc(Br)cc2)N1c1ccc([N+](=O)[O-])cc1` (stereo not drawn) [Compound P-16, 2-(3-(4-bromophenyl)-1-isonicotinoyl-1H-pyrazol-4-yl)-3-(4-nitrophenyl)thiazolidin-4-one] yielded a melting point of 268 to 270 °C. The IC50 in series [1] (setting [5]) stood at 2010 ± 110 nM. In addition, the concentration for half-maximal inhibition (IC50) in series [2] (setting [6]) stood at 2250 ± 250 nM. Also, the half-inhibitory concentration (IC50) in series [3] is 2100 ± 150 nM.
`O=C1CSC(c2cn(C(=O)c3ccncc3)nc2-c2ccc(Br)cc2)N1c1ccc(Cl)cc1` (stereo not drawn) [Compound P-18, 2-(3-(4-bromophenyl)-1-isonicotinoyl-1H-pyrazol-4-yl)-3-(4-chlorophenyl)thiazolidin-4-one] returned a melting point of 244 to 246 °C. The IC50 in series [1] (setting [5]) amounted to 1520 ± 90 nM. Further, the IC50 in series [2] (setting [6]) came out at 1770 ± 150 nM. Further, the 50% inhibitory concentration (IC50) in series [3] was 1620 ± 110 nM.
Compound `O=C1CSC(c2cn(C(=O)c3ccncc3)nc2-c2ccc(Br)cc2)N1c1cccc(Cl)c1` (stereo not drawn) [Compound P-19] showed a melting point of 248 to 250 °C. Also, the half-inhibitory concentration (IC50) in series [1] (setting [5]) came out at 1020 ± 120 nM. The IC50 in series [2] (setting [6]) turned out to be 1210 ± 50 nM. Moreover, the IC50 in series [3] turned out to be 790 ± 70 nM.
On to `COc1ccc(N2C(=O)CSC2c2cn(C(=O)c3ccncc3)nc2-c2ccc(Br)cc2)cc1` (stereo not drawn) [Compound P-20, 2-(3-(4-bromophenyl)-1-isonicotinoyl-1H-pyrazol-4-yl)-3-(4-methoxyphenyl) thiazolidin-4-one], for which the half-inhibitory concentration (IC50) is 420 ± 80 nM in series [1] (setting [5]), 560 ± 60 nM in series [2] (setting [6]), 220 ± 80 nM in series [3] and 390 to 560 nM in series [4].
`COc1ccccc1N1C(=O)CSC1c1cn(C(=O)c2ccncc2)nc1-c1ccc(Br)cc1` (stereo not drawn) [Compound P-21] returned a melting point of 260 to 262 °C.
For the compound `Cc1cc(Nc2cc(N3CCN(C)CC3)nc(Sc3ccc(NC(=O)C4CC4)cc3)n2)[nH]n1` [VX-680, Tozasertib, reference compound], the IC50 in series [1] (Homo sapiens, HCT-116, MTT assay, HCT116, read-out: IC50 ± SD, HCT-116, inhibition of growth of tumor cell lines) worked out at 320 ± 50 nM; in series [1] (MTT assay, HCT116, listed as VX-680 (Tozasertib), read-out: IC50 ± SD, HCT-116, inhibition of growth of tumor cell lines), 300 ± 30 nM; in series [2] (Homo sapiens, MCF7, MTT assay, MCF-7, read-out: IC50 ± SD, MCF-7, inhibition of growth of tumor cell lines), 400 ± 30 nM; in series [2] (MTT assay, MCF-7, listed as VX-680 (Tozasertib), read-out: IC50 ± SD, MCF-7, inhibition of growth of tumor cell lines), 380 ± 20 nM.

For the origin of these results see article PMC9382805, “Design, synthesis, anticancer evaluation and docking studies of novel 2-(1-isonicotinoyl-3-phenyl-1H-pyrazol-4-yl)-3-phenylthiazolidin-4-one derivatives as Aurora-A kinase inhibitors” (BMC Chemistry, 2022).
